What is called AC50 is the concentration at which the activity in the assay is half-maximal.

From ChEMBL document CHEMBL5291721, “A preclinical secondary pharmacology resource illuminates target-adverse drug reaction associations of marketed drugs” (Nat Commun, 2023) come the findings set out here.

In one assay the target is T1, Adenosine receptor A3 (Homo sapiens, UniProt P0DMS8).
T1 sequence (P0DMS8 whole entry): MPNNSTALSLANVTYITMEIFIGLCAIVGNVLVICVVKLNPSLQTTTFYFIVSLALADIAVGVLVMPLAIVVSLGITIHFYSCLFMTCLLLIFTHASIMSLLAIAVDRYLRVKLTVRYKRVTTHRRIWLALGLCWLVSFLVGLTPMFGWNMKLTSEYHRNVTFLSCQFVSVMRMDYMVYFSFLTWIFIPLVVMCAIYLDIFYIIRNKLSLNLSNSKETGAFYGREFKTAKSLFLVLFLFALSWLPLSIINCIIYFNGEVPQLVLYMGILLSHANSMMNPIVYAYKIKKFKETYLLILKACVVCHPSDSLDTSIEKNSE

Assay [1] deals with T2, Alpha-1A adrenergic receptor (Homo sapiens, UniProt P35348).
T2 sequence (P35348 whole entry): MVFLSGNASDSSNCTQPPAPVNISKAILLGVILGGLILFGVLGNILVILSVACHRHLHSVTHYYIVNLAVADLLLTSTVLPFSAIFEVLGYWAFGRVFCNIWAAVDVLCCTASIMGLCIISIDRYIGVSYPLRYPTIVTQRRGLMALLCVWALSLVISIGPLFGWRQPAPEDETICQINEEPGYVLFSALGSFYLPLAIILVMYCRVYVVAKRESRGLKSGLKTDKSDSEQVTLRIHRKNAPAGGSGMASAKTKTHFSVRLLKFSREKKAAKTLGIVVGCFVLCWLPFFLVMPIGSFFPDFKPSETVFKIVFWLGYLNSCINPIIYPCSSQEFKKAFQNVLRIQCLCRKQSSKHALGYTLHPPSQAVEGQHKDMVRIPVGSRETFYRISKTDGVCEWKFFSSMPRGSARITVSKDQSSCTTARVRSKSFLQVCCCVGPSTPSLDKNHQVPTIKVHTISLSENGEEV
It is filed as functional, cell-based.

The target of assay [2] is T3, Alpha-2A adrenergic receptor (Homo sapiens, UniProt P08913).
T3 sequence (P08913 whole entry): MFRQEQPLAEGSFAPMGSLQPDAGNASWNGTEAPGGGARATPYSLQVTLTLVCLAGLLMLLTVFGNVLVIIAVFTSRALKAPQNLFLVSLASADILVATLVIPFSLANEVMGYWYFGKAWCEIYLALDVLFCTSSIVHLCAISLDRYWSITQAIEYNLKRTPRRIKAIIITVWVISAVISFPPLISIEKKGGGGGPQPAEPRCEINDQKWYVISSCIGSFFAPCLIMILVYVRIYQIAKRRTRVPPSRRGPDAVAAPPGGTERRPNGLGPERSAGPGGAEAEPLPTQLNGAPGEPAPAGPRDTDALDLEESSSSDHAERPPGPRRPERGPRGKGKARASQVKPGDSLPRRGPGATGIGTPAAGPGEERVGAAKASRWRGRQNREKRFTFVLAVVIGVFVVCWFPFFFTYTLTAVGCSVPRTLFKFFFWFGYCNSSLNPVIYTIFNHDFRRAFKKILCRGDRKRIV
It is filed as functional, cell-based.

Assay [3] addresses T3, Alpha-2A adrenergic receptor. It counts as functional, cell-based. This is another data set of the same source.
For another assay, the target named is Vasopressin V2 receptor (Homo sapiens, UniProt P30518).
Sequence of Vasopressin V2 receptor (P30518 whole entry): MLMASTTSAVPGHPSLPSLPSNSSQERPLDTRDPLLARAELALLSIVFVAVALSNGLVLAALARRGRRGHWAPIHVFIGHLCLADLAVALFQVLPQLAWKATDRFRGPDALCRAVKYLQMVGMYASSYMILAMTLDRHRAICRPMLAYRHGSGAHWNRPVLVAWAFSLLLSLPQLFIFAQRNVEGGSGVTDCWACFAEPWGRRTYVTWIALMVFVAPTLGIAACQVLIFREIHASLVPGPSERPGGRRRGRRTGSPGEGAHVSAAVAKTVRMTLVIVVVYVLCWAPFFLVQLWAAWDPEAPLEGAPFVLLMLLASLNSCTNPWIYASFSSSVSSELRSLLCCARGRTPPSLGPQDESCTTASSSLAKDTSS
In assay [4] the target is T4, Cholecystokinin receptor type A (Homo sapiens, UniProt P32238).
T4 sequence (P32238 whole entry): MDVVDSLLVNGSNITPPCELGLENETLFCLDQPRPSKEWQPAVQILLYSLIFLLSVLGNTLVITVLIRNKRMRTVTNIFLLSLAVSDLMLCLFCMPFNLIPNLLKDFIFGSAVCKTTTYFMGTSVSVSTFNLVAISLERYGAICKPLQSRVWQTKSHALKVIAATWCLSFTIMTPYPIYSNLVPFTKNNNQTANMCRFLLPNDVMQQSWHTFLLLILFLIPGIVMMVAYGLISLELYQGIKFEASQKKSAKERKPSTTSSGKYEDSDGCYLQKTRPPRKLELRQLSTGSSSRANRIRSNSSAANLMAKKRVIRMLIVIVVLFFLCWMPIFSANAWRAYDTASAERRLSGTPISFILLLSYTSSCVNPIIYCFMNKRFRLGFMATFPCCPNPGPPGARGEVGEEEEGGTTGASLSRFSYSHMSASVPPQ

In assay [5] the target is T5, Gastrin/cholecystokinin type B receptor (Homo sapiens, UniProt P32239).
T5 sequence (P32239 whole entry): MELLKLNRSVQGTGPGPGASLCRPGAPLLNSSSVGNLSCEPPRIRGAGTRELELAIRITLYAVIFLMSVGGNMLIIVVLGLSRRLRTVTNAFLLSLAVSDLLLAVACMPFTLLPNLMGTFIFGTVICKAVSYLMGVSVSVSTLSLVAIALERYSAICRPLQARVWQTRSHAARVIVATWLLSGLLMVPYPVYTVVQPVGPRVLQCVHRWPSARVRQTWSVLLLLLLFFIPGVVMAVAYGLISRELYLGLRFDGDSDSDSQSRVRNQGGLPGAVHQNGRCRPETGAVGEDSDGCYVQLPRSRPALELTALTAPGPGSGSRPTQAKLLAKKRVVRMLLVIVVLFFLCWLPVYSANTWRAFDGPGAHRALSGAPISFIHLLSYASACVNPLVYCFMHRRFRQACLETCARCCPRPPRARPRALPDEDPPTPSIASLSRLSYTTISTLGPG

A further assay concerns the target Cannabinoid receptor 1 (Homo sapiens, UniProt P21554). It counts as functional, cell-based.
Assay [6] concerns the target Growth hormone secretagogue receptor type 1 (Homo sapiens, UniProt Q92847).
Assay [7] deals with Glutamate receptor ionotropic, NMDA 1 (Rattus norvegicus, UniProt P35439).
The next assay has as its target Mu-type opioid receptor (Homo sapiens, UniProt P35372). Put plainly: biochemical. It counts as functional.
Assay [8] has as its target T2, Alpha-1A adrenergic receptor. It counts as functional, cell-based. This is another data set of the same source.
Note: assay procedure not described here.

Sequence of Growth hormone secretagogue receptor type 1 (Q92847 whole entry): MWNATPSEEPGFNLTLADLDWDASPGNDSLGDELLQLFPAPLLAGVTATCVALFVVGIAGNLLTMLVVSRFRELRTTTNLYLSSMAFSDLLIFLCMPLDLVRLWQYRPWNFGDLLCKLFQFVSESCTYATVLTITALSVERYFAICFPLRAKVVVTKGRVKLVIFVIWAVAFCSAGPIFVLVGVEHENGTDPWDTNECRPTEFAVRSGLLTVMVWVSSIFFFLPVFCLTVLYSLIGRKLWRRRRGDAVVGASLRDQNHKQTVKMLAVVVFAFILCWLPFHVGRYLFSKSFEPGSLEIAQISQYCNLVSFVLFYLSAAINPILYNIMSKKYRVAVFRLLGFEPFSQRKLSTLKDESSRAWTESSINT
Sequence of Cannabinoid receptor 1 (P21554 whole entry): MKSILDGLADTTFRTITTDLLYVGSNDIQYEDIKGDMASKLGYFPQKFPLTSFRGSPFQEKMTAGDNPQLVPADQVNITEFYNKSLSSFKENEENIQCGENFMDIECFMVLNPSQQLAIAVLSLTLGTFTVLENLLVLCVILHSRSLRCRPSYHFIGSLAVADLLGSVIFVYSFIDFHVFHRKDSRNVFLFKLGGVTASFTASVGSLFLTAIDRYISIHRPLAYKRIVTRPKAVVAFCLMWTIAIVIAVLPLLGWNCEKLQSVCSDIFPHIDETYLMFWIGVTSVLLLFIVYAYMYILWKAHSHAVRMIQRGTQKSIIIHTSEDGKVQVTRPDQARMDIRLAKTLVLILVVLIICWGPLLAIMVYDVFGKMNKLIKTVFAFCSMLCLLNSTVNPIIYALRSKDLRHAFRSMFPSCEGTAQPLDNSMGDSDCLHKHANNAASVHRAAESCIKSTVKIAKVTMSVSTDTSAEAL
Sequence of Mu-type opioid receptor (P35372 whole entry): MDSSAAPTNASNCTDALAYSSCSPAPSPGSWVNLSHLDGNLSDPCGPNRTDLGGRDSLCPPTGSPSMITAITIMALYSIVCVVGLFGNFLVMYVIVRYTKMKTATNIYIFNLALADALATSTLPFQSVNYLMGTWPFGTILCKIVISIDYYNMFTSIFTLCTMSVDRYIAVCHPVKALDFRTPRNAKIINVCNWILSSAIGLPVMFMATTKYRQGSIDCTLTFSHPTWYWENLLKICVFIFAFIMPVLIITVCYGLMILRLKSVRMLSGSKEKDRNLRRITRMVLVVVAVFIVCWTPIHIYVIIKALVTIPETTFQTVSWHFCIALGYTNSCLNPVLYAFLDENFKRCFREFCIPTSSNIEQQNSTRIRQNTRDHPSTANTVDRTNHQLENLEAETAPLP

As to `CCN(CC)C(=O)C1CN2CCc3cc(OC)c(OC)cc3C2CC1OC(C)=O` (configuration not stated) [BENZQUINAMIDE], the AC50 at Adenosine receptor A3 was more than 30 µM; in assay [1] it was more than 30 µM; in [2], more than 30 µM; in assay [3], 0.735 µM; at Vasopressin V2 receptor, more than 30 µM; in [4], more than 30 µM. The concentration at half-maximal activity (AC50) (in assay [5]; at Cannabinoid receptor 1; in [6]; in [7]; at Mu-type opioid receptor; in [8]) was more than 30 µM each time.

Regarding `CCC(=O)OCC(=O)[C@@]1(OC(=O)CC)[C@@H](C)C[C@H]2[C@@H]3CCC4=CC(=O)C=C[C@]4(C)[C@@]3(F)[C@@H](O)C[C@@]21C` [BETAMETHASONE DIPROPIONATE], the concentration at half-maximal activity (AC50) on Adenosine receptor A3 was 24 µM; in [1] it was more than 30 µM; in [2], more than 30 µM; in [3], more than 30 µM; at Vasopressin V2 receptor, more than 30 µM; in assay [4], more than 30 µM. The AC50 (in assay [5]; on Cannabinoid receptor 1; in assay [6]; in assay [7]; on Mu-type opioid receptor; in assay [8]) was more than 30 µM in each case.

For the compound `COc1cc(OC)c(C(=O)CCCN2CCCC2)c(OC)c1` [BUFLOMEDIL], the AC50 on Adenosine receptor A3 is more than 30 µM; in assay [1] it was more than 30 µM; in [2], more than 30 µM; in assay [3], 6.1 µM; at Vasopressin V2 receptor, more than 30 µM; in [4] it was more than 30 µM. Moreover, the concentration at half-maximal activity (AC50) (in assay [5]; on Cannabinoid receptor 1; in assay [6]; in assay [7]; on Mu-type opioid receptor; in assay [8]) was more than 30 µM in each case.

As for `CS(=O)(=O)OCCCCOS(C)(=O)=O` [BUSULFAN], the AC50 (on Adenosine receptor A3; in assay [1]; in [2]; in assay [3]; at Vasopressin V2 receptor; in [4]) was more than 30 µM each time. In addition, the concentration at half-maximal activity (AC50) (in [5]; at Cannabinoid receptor 1; in assay [6]; in assay [7]; on Mu-type opioid receptor; in [8]) was more than 30 µM throughout.

For `CCCCC1(CC)C(=O)NC(=O)NC1=O` [BUTETHAL], the AC50 (on Adenosine receptor A3; in assay [1]; in assay [2]; in assay [3]; on Vasopressin V2 receptor; in assay [4]) was more than 30 µM each time. Besides, the AC50 (in assay [5]; on Cannabinoid receptor 1; in assay [6]; in assay [7]; at Mu-type opioid receptor; in assay [8]) was more than 30 µM in each case.

For `CCOC(=O)NNc1ccc(N(CC)CC(C)O)nn1` (configuration not stated) [CADRALAZINE], the AC50 (on Adenosine receptor A3; in assay [1]; in [2]; in assay [3]; at Vasopressin V2 receptor; in [4]) was more than 30 µM in each case. The AC50 (in assay [5]; on Cannabinoid receptor 1; in assay [6]; in assay [7]; on Mu-type opioid receptor; in [8]) was more than 30 µM each time.

On to `CCN(CC)CCOC(=O)c1ccc(N)cc1Cl` [CHLOROPROCAINE], for which the half-maximal activity concentration (AC50) (at Adenosine receptor A3; in assay [1]; in [2]; in assay [3]; at Vasopressin V2 receptor; in assay [4]) was more than 30 µM each time. Further, the AC50 (in assay [5]; at Cannabinoid receptor 1; in assay [6]; in assay [7]; on Mu-type opioid receptor; in assay [8]) was more than 30 µM in each case.

Regarding `CC(C)(C)NCC(O)c1cc(Cl)c(N)c(Cl)c1` (configuration not stated) [CLENBUTEROL], the AC50 (at Adenosine receptor A3; in assay [1]; in [2]; in assay [3]; at Vasopressin V2 receptor; in [4]) was more than 30 µM in each case. In addition, the AC50 (in assay [5]; at Cannabinoid receptor 1; in [6]; in assay [7]; on Mu-type opioid receptor; in [8]) was more than 30 µM in each case.

On to `CCC(C)(Oc1ccc(C2(c3ccc(OC(C)(CC)C(=O)O)cc3)CCCCC2)cc1)C(=O)O` (configuration not stated) [CLINOFIBRATE], for which the concentration at half-maximal activity (AC50) on Adenosine receptor A3 was 20 µM; in assay [1], more than 30 µM; in assay [2], more than 30 µM; in assay [3] it was more than 30 µM; on Vasopressin V2 receptor, more than 30 µM; in assay [4], more than 30 µM. Also, the AC50 (in assay [5]; at Cannabinoid receptor 1; in [6]; in assay [7]; at Mu-type opioid receptor; in assay [8]) was more than 30 µM throughout.

With `CCCCC[C@H](O)/C=C/[C@H]1[C@H](O)CC(=O)[C@@H]1C/C=C\CCCC(=O)O` [DINOPROSTONE], the AC50 (at Adenosine receptor A3; in assay [1]; in [2]; in [3]; on Vasopressin V2 receptor; in assay [4]) was more than 30 µM throughout. Besides, the AC50 (in [5]; on Cannabinoid receptor 1; in [6]; in assay [7]; on Mu-type opioid receptor; in assay [8]) was more than 30 µM in each case.

As to `CC(C)c1cc2c(cc1S(=O)(=O)O)[C@@]1(C)CCC[C@@](C)(C(=O)O)[C@@H]1CC2` [ECABET], the AC50 (at Adenosine receptor A3; in [1]; in [2]; in assay [3]; on Vasopressin V2 receptor; in assay [4]) was more than 30 µM throughout. Moreover, the AC50 (in assay [5]; at Cannabinoid receptor 1; in assay [6]; in assay [7]; at Mu-type opioid receptor; in assay [8]) was more than 30 µM throughout.
